# Reference: patent US20190290474A1, “DRUG RELEASE DEVICE AND USE” (JUROX PTY LTD, priority 2016, published 2019)
# Columns and labels:
# [1] = aqueous pH 7 buffer; cited from earlier work
# [2] = Example 13: progesterone dissolution from cut devices in 250 mL acetone, HPLC/UV; format: physicochemical; details: individual device
# Protocol: The combined mass of each reagent bottle and solid contents was recorded (Mi) and each bottle was then charged with 250 mL of acetone. Reagent bottles were heated to 35° C. in a temperature controlled water bath and stirred using a submersible multipoint stirrer plate.
# Reagent bottles were removed from the water bath at times 2, 4.5 and 47.5 hours after the commencement of stirring. All residual water from the temperature controlled water bath was removed from the outside of the container. The total mass of the dissolution vessel, drug product and drug product solution was then recorded (Mf) and the reagent bottles were left at ambient temperature. The initial mass (of components prior to solvent addition) was subtracted from the final mass to give the solvent mass at each time point.
# The temperature of each solution of device extracts was recorded at 2.5, 5 and 48 hours after stirring commenced and a 2 mL aliquot of solution was sampled immediately following the temperature reading. The aliquot of extracts were diluted in 100 mL of 50:50 acetonitrile/water and a sample of the diluted solution was filtered into HPLC vials
# The mass of solvent was converted to its corresponding volume using the literature density of acetone and equation below.
# A progesterone dissolution profile and final content for each implant was be obtained using a HPLC/UV method for progesterone quantification in IVD and CIDR
smiles,measurement,setting,value
CC(=O)[C@H]1CC[C@H]2[C@@H]3CCC4=CC(=O)CC[C@]4(C)[C@H]3CC[C@]12C [Progesterone],solubility of progesterone,[1],< 0.1 g/L
same,"Dissolution of progesterone, percentage of the dose concentration (1.38 g)",[2]; 2.5 Hours,100.8%
same,"Dissolution of progesterone, percentage of the dose concentration (1.38 g)",[2]; 5 Hours,104.1%
same,"Dissolution of progesterone, percentage of the dose concentration (1.38 g)",[2]; 48 Hours,103.2%
